{"source": "patent US11554106B2", "about": "“Prevention of the risks associated with drug-induced QT interval prolongation by using a specific inhibitor of the production of ROS of miochondrial origin” (priority 2017, dated 2023)", "key": {"QTcF interval": {"tested_on": "QTcF interval", "assay": "TQT study of moxifloxacin-induced QT prolongation in healthy volunteers", "assay_type": "in vivo, humans", "conditions": "75 mg ATT oral 60 minutes before 400 mg oral moxifloxacin", "procedure": "Principle: Following the 2005 ICH E14 recommendation (FDA, 2005), a TQT study (“through QT study”) was conducted in healthy volunteers to evaluate the protective effect of ATT on QT prolongation induced by a single oral dose of 400 mg moxifloxacin.\nMethodology: This was a single-dose, cross-over study conducted in healthy volunteers.\nThe volunteers, 16 men aged 18 to 40, were selected based on the following criteria: medical history, physical examination (including a BMI between 18 and 26 kg/m2), vital signs, clinical examinations, biological check-up and 12-lead ECG.\nThe selected volunteers were equipped with a Holter ECG for a 24-hour recording.\nFour sequences were tested with a 7-day wash-out period between each: • 1st sequence—no treatment was given; • 2nd sequence—each volunteer received a 400 mg oral dose of moxifloxacin; • 3rd sequence—each volunteer took 75 mg of ATT by mouth (3 tablets of Sulfarlem® 25); and • 4th sequence—each volunteer received a 400 mg oral dose of moxifloxacin, 60 minutes after an oral dose of 75 mg ATT (3 tablets of Sulfarlem® 25). […]"}, "[1]": {"conditions": "rats; cited from earlier work"}, "tenocytes": {"tested_on": "tenocytes", "conditions": "pre-incubation of tenocytes with ATT at 10 μM for 3 hours; oxidative stress induced by FQ (ciprofloxacin, ofloxacin, pefloxacin); cited from earlier work"}, "[2]": {"tested_on": "acute organochlorine poisoning", "assay": "Treatment of a cat with acute organochlorine poisoning", "assay_type": "in vivo", "conditions": "one cat, unpublished experiment", "from_the_text": "Knowing that when ROS are overexpressed by mitochondria, this induces a simultaneous overproduction of cytosolic ROS, whose production source is NADPH oxidase (or NOX, usually NOX4 and NOX2), some authors conclude that NOX are the first responsible when in fact mitochondrial production is the culprit (Gosh R. et al., J. Clin. Diagn. Res., 2017, 11: BC09-BC12; Mangum L. C. et al., Chem. Res. Toxicol, 2015, 28: 570-584)."}, "[3]": {"conditions": "70 years marketed in France; cited from earlier work"}, "QT and QTc intervals": {"tested_on": "QT and QTc intervals", "assay": "Moxifloxacin-induced QT prolongation in dogs (single-dose cross-over, telemetry ECG)", "assay_type": "in vivo, male Beagle dogs", "procedure": "Principle: This is a single-dose study in dogs to examine the protective effect of ATT on QT prolongation induced by the intravenous (IV) injection of a dose of moxifloxacin, which is considered the reference substance (positive control).\nMethodology: This is a cross-over and single-dose study conducted on 4 groups of 4 male Beagle dogs receiving, depending on the group: • Group 1—control group: intraperitoneal injection [i.p.] of the ATT vehicle; • Group 2—ATT, 5 mg/kg, administered i.p.; • Group 3—moxifloxacin, 15 mg/kg, administered as a slow IV injection in 5% lactic acid at 0.5 mL/kg; and • Group 4—an ATT dose of 5 mg/kg is injected i.p. 30 minutes before a slow IV dose of moxifloxacin of 15 mg/kg (see above).\nIn this study, each dog is equipped with an implantable teletransmitter of the “DSI radio-telemetry transmitter” type allowing continuous ECG recording over 24 hours in 10-minute sequences, including the measurement of PQ, QRS, QT and QTc spaces (correction according to the Van de Water formula), heart rate as well as systolic and diastolic BP and mean BP. ECG analysis is performed using Notocord Systems® ECG51a software and BP analysis using APR30a software, also from Notocord Systems®."}, "human Jurkat T cells": {"tested_on": "human Jurkat T cells", "conditions": "cited from earlier work"}, "[4]": {"conditions": "marketed form; cited from earlier work"}, "[5]": {"tested_on": "1Q site of the respiratory chain", "conditions": "cited from earlier work"}}}
{"smiles": "COc1ccc(-c2cc(=S)ss2)cc1", "note": "[ATT, 5-(4-methoxyphenyl)-3H-1,2-dithiole-3-thione]", "values": [{"measurement": "upper limit of the confidence interval of the effect of moxifloxacin on the QTcF interval", "setting": "QTcF interval", "value": "less than 10 msec"}, {"measurement": "Vd", "setting": "[1]", "value": "about 2 L/kg"}, {"measurement": "cellular production of ROS", "setting": "tenocytes", "value": "significantly reduces"}, {"measurement": "outcome of treatment of acute organochlorine poisoning", "setting": "[2]", "value": "successfully treated"}, {"measurement": "side effects relating to long-term use", "setting": "[3]", "value": "no side effects have been reported"}, {"measurement": "QT and QTc intervals", "setting": "QT and QTc intervals; ATT 5 mg/kg i.p. 30 minutes before moxifloxacin 15 mg/kg slow IV", "value": "maintained in the normal range"}, {"measurement": "free radical scavenger and antioxidant activity", "setting": "human Jurkat T cells", "value": "powerful free radical scavenger and antioxidant"}]}
{"smiles": "Oc1ccc(-c2cc(=S)ss2)cc1", "note": "[ATX, 4-OH-anethole trithione]", "values": [{"measurement": "circulating product found after oral administration of ATT", "setting": "[4]", "value": "most of the circulating product found is ATX"}, {"measurement": "solubility in water", "setting": "Solubility in water", "value": "insoluble in water"}]}
{"smiles": "O=[N+]([O-])c1ccc(Oc2ccc(S(=O)(=O)NC3CCCCC3)cc2)cc1", "note": "[NC-POBS, N-cyclohexyl-4-(4-nitrophenoxy)benzenesulfonamide]", "values": [{"measurement": "specific inhibition of mitochondrial ROS production", "setting": "[5]", "value": "specific inhibitor of mitochondrial ROS production"}]}
{"smiles": "COc1c(N2C[C@@H]3CCCN[C@@H]3C2)c(F)cc2c(=O)c(C(=O)O)cn(C3CC3)c12", "note": "[moxifloxacin]", "values": [{"measurement": "QT and QTc intervals", "setting": "QT and QTc intervals; moxifloxacin 15 mg/kg slow IV alone", "value": "significantly increased"}]}
